What was measured:
[1] = test system: E. multilocularis metacestode vesicles; assay: Phosphoglucose isomerase (PGI) release assay (damage-marker release) on metacestode vesicles; format: cell-based, Echinococcus multilocularis; conditions: 10 μM; for PGI d5 (relative PGI release): 5 days; for PGI d12 (relative PGI release): 12 days
[2] = test system: E. multilocularis metacestode vesicles; assay: Metacestode vesicle viability assay (ATP, CellTiter-Glo); format: cell-based, Echinococcus multilocularis
Method: Viability was assessed after 12 days using the same metacestode vesicles as for the PGI release assay. Triton X-100 was added to each well to a final concentration of 0.1 %. Subsequently the metacestode vesicles were broken mechanically and 50 μL of the supernatant was mixed with 50 μL of CellTiter-Glo® buffer (Promega, Dübendorf, Switzerland). Measurements were performed on a HIDEX Sense microplate reader.

[3] = confirmation screen, triplicates, mean
[4] = overview screen, singlets, relative to 0.1 % Triton X-100, DMSO subtracted
[5] = confirmation screen, 10 μM, triplicates, mean, 12 days
[6] = overview screen, 10 μM, singlets, 12 days, relative to DMSO control

Structure (SMILES)	PGI d5 (relative PGI release) [1, 3]	PGI d12 (relative PGI release) [1, 3]	PGI d5 (relative PGI release) [1, 4]	PGI d12 (relative PGI release) [1, 4]	Viability d12 (relative viability) [2, 5]	Viability d12 (relative viability) [2, 6]	Viability d12 (relative viability) ([2]; 10 µM)
CC(C)N=c1cc2n(-c3ccc(Cl)cc3)c3ccccc3nc-2cc1Nc1ccc(Cl)cc1 [MMV687800]	0.81%	1.29%	10.9227%	104.553%	142.49%	4.175%	
CC[C@H](CO)NCCN[C@H](CC)CO [MMV687801]			-2.724%	9.893%		117.919%	
O=[N+]([O-])c1cn2c(n1)OC[C@@H](OCc1ccc(OC(F)(F)F)cc1)C2 [MMV688755]			-1.0977%	-12.4687%		91.4293%	
CC(=O)NC[C@H]1CN(c2ccc(N3CCSCC3)c(F)c2)C(=O)O1 [MMV688756]			-1.412%	-2.526%		97.3563%	
O=C(NCc1ncc(C(F)(F)F)cc1Cl)c1c(Cl)cccc1Cl [MMV689401]			-2.654%	-25.1085%		22.5442%	
COc1nc2ccc(Br)cc2cc1[C@@H](c1ccccc1)[C@@](O)(CCN(C)C)c1cccc2ccccc12 [MMV689758]			-2.925%	-4.755%		111.826%	
Cc1cc(CCCOc2c(C)cc(-c3noc(C(F)(F)F)n3)cc2C)on1 [MMV690467]			0.4162%	0.2856%		74.4224%	
COc1ccccc1CN[C@H]1C2CCN(CC2)[C@H]1C(c1ccccc1)c1ccccc1 [MMV690480]			-0.6012%	-18.8913%		61.0456%	
Nc1nc(=O)c(Br)c(-c2ccccc2)[nH]1 [MMV690540]	0.19%	1.01%	2.1344%	38.5177%	98.22%	20.6612%	
CCOCc1nc2c(N)nc3ccccc3c2n1CC(C)(C)O [MMV690547]	0.18%	0.96%	0.01909%	53.3537%	159.08%	9.628%	
FC(F)(F)c1cc(C(F)(F)F)c2ccc3nc(-c4nnco4)cn3c2n1 [MMV690555]			0.9496%	0.5886%		300.676%	
O=C(NC1CCCc2c1[nH]c1ccc(Cl)cc21)c1ccccn1 (stereo not drawn) [MMV690621]			0.1463%	-17.1395%			144.507%
O=C(NO)C1(CS(=O)(=O)c2ccc(Oc3ccc(Cl)cc3)cc2)CCOCC1 [MMV690706]			0.06885%	-1.025%		178.089%	
CN(C)CCNC(=O)c1cccc2cccnc12 [MMV811071]			0.8254%	33.0305%		78.9047%	
CCc1ccc(C2CC(C(F)(F)F)n3ncc(C(=O)NCc4ccc(OC)cc4)c3N2)cc1 (stereo not drawn) [MMV831201]			-0.786%	-0.2956%		124.843%	
Nc1cc(-c2nc3ccccc3[nH]2)n[nH]c1=O [MMV975972]			0.8096%	-4.832%		175.408%	
O=C1C=C(c2ccccc2)S(=O)(=O)c2ccccc21 [MMV1006203]			0.2239%	0.7153%		120.957%	
CC(C)Oc1cccc(NC(=O)c2ccccc2C(F)(F)F)c1 [MMV1009286]			-2.405%	-25.3832%		77.2348%	

Structure (SMILES)	PGI d5 (relative PGI release) [1, 3]	PGI d12 (relative PGI release) [1, 3]	PGI d5 (relative PGI release) [1, 4]	PGI d12 (relative PGI release) [1, 4]	Viability d12 (relative viability) [2, 5]	Viability d12 (relative viability) [2, 6]	Viability d12 (relative viability) ([2]; 10 µM)
O=C(c1ccc(F)cc1)N1CCN2C(=O)c3ccccc3C12c1ccccc1 (stereo not drawn) [MMV1165877]	0.55%	0.41%	6.429%	52.7291%	130.42%	23.1723%	
CC(C)(C)c1ccc(Oc2ccc(N)cc2)cc1 [MMV1174026]			-0.5482%	16.4911%		305.195%	
CC(C)(C)c1cc(CCC(=O)N2CCC2)cc(C(C)(C)C)c1O [MMV1229204]			-1.987%	-10.8726%		39.6611%	
O=C(NCc1ccccc1Cl)c1cnc2ccccc2n1 [MMV1230557]			-1.462%	-11.048%		58.5314%	
O=C(NCc1ccc2c3c(cccc13)C(=O)N2)c1cccs1 [MMV1341773]			-1.3816%	-12.533%		18.2024%	
COc1c(F)c(F)cc2c(=O)c(C(=O)O)cn(C3CC3)c12 [MMV1480967]			0.2423%	-3.0894%		115.193%	
COc1ccc(NC(=O)CC2Sc3ncnn3C2=O)cc1 (stereo not drawn) [MMV1483032]			0.1451%	-11.504%		68.4676%	
O=S(=O)(Nc1ccc(-n2cccc2)cc1)c1ccc(Cl)c(Cl)c1 [MMV1505642]			-0.09064%	-9.692%		76.9008%	
CC1(C)Cc2c(C#N)c(SCCc3ccccc3)nc(N3CCOCC3)c2CO1 [MMV1549626]			-2.265%	-14.2052%		93.3497%	
CC[C@H](NC(=O)[C@H](C)NC)C(=O)N1C[C@@H](O)C[C@H]1Cc1c(-c2[nH]c3cc(F)ccc3c2C[C@@H]2C[C@H](O)CN2C(=O)[C@H](CC)NC(=O)[C@H](C)NC)[nH]c2cc(F)ccc12 [MMV1557856]			-1.122%	-0.1165%		106.397%	
O=C1NC(=O)C(Br)=C1Br [MMV1578554]			3.162%	5.51%		135.147%	
O=C(Nc1ccc(F)cc1)c1nn(-c2ccccc2)c(=O)cc1Cl [MMV1578555]			4.414%	31.7823%		71.8821%	
C[C@H]1CC[C@@]2(O)C(C)(C)[C@@H]3CC[C@@]2(C)[C@H]1C3 [MMV1578556]			-0.5138%	-7.5984%		153.384%	
Cc1c(N)cccc1Cn1ccc(OCCc2cccs2)cc1=O [MMV1578557]			-0.9531%	-14.0356%		70.6385%	
CCc1oc2ccccc2c1C(=O)c1ccc(O)cc1 [MMV1578558]			-2.405%	11.8922%		72.3877%	
CO[C@@]1(NC(=O)Cc2cccs2)C(=O)N2C(C(=O)O)=C(COC(N)=O)CS[C@@H]21 [MMV1578559]			-1.349%	-7.289%		75.9823%	
NCC(=O)Nc1ccc(-n2nc(C(F)(F)F)cc2-c2ccc3c(ccc4ccccc43)c2)cc1 [MMV1578560]			3.295%	35.9177%		75.9823%	
